Data as given in patent EP0427860A1, “NEW IMIDAZOLE DERIVATIVES, PRODUCTION THEREOF, AND USES THEREOF AS MEDICINES” (Kyoto Pharmaceutical Industries, Ltd., priority 1989, dated 1990).

Experiments:
[1] = test system: platelet rich plasma (PRP) from rabbits; experiment: Inhibitory activities on platelet aggregation (arachidonic acid-induced, transmittance); assay type: cell-based; conditions: test drug 10^-6 M, rabbit PRP, aggregation induced by arachidonic acid (0.1 mM); for inhibition at 1 µM: Oryctolagus cuniculus, Platelet, read-out: Experiment 1 10^-6 M inhibition (%)
Protocol: Experiment 1 (Inhibitory activities on platelet aggregation)
Platelet aggregation of platelet rich plasma (PRP) from rabbits was measured with the use of an NKK- hematracer (Niko Bioscience). That is, to PRP (200µ 1) was added a test drug or a solvent at 37°C while stirring at 1000 rpm, and an aggregation-inducing agent was added thereto 1 minute later, to measure the changes in transmittance caused by the platelet aggregation. Arachidonic acid (0.1 mM) was used as the aggregation-inducing agent.

[2] = test system: lipoperoxide production in rat brain; experiment: Inhibitory activities on lipoperoxide production in rat brain (MDA yield, TBA method); assay type: biochemical; conditions: rat cerebrum suspension, 37° C for 30 minutes, lipoperoxide measured as MDA yield; read-out: Experiment 2 IC50 value
Protocol: Experiment 2 (Inhibitory activities on lipoperoxide production in rat brain)
To male rats weighing about 300 g was intraperitoneally administered 100 mg/kg of sodium pentobar- bital and the rats were exsanguinated to death while anesthetized, after which the cerebrum was extracted. The extracted cerebrum was washed with ice-cooled physiological saline, dried gently, and weighed. Thereto was added 5-fold amount by weight of a 50 mM phosphatesaline buffer (pH 7.4), which was then suspended by an ultradisperser under ice-cooling, followed by centrifugation at 1300 g and at 4 C for 10 minutes. The supernatant was 5-fold diluted with the above buffer, and used as a suspension for measurement.
The suspension to which the test drug had been added at 1/100 volume was incubated at 37° C for 30 minutes, and the amount of the resulting lipoperoxide was measured as an MDA yield. The assay of MDA was conducted by a modified method based on Smith et al., and the absorbance of the TBA reaction product at 532 nm was measured.

TXB2 = experiment: Assay of TXB2 in serum after oral administration; assay type: in vivo; conditions: 10 mg/kg orally, male rats, blood taken 1 hour later, incubated at 37° C for 90 minutes, Control 192.5
Protocol: Experiment 3 (Assay of TXB2)
The test drug was orally administered to male rats, and 1 hour later, a blood sample was taken from ventral aorta via a polyethylene tube while anesthetized with ether. The blood taken was immediately incubated at 37° C for 90 minutes, and TXB2 was extracted from the serum separated, followed by assay using a [^3H]RIA Kit.

| Compound | inhibition at 1 µM [1] [%] | IC50 [2] [µM] | Experiment 1 10^-6 M inhibition (%) [1] [%] | TXB2 (TXB2) [ng/mL] |
| --- | --- | --- | --- | --- |
| CCCCCCCCCOc1ccc2c(c1)C(CCn1ccnc1)CN2CCC(=O)OCC (stereo not shown) [Example 26] | 40.5 |  |  |  |
| C=CCOc1ccc2c(c1)C(CCn1ccnc1)CN2CCC(=O)O (stereo not shown) [Example 31] | 0.2 | 20.3 |  |  |
| CCCOc1ccc2c(c1)C(CCn1ccnc1)CN2CCC(=O)OCC (stereo not shown) [Example 18] | 21.8 |  |  |  |
| CCCOc1ccc2c(c1)C(CCn1ccnc1)CN2CCC(=O)O (stereo not shown) [Example 19] | 3.6 | 19.4 |  |  |
| CCCCCCCOc1ccc2c(c1)C(CCn1ccnc1)CN2CCC(=O)OCC (stereo not shown) [Example 22] | 37 |  |  |  |
| CCOC(=O)CCN1CC(CCn2ccnc2)c2cc(C3CCCCC3)ccc21 (stereo not shown) [Example 16] | 2.1 |  |  |  |
| CCOC(=O)CCN1CC(CCn2ccnc2)c2ccccc21 (stereo not shown) [Example 1] | 40.3 | 93 |  |  |
| CCCc1ccc2c(c1)C(CCn1ccnc1)CN2CCC(=O)O (stereo not shown) [Example 13] | 10.4 | 21.9 |  |  |
| C=CCOc1ccc2c(c1)C(CCn1ccnc1)CN2CCC(=O)OCC (stereo not shown) [Example 30] | 28.4 |  |  |  |
| COc1ccc2c(c1)C(CCn1ccnc1)CN2CCC(=O)O (stereo not shown) [Example 11] | 36 | 73 |  |  |
| Ethyl 3-[2-(1 H-imidazol-1-yl)ethyl]-1-indolineacetate [Example 5] |  | 25 | 20.3 |  |
| CCCCCOc1ccc2c(c1)C(CCn1ccnc1)CN2CCC(=O)OCC (stereo not shown) [Example 20] | 45.2 | 2.05 |  | 5.1 |
| O=C(O)/C=C/c1ccc(Cn2ccnc2)cc1 [OKY-046, reference compound] | 4 |  |  |  |
| CCCCCCCCCOc1ccc2c(c1)C(CCn1ccnc1)CN2CCC(=O)O (stereo not shown) [Example 27] | 27 | 0.26 |  | 4.8 |
| O=C(O)CCN1CC(CCn2ccnc2)c2ccccc21 (stereo not shown) [Example 2, 3-[2-(1 H-Imidazol-1-yl)ethyl]-1-indolinepropionic acid] | 8.7 |  |  |  |
| O=C(O)CCN1CC(CCn2ccnc2)c2cc(C3CCCCC3)ccc21 (stereo not shown) [Example 17] | 15.7 | 2.05 |  |  |
| CCCCCCCOc1ccc2c(c1)C(CCn1ccnc1)CN2CCC(=O)O (stereo not shown) [Example 23] | 11.5 | 0.25 |  |  |
| CCCCCCCCCCCCOc1ccc2c(c1)C(CCn1ccnc1)CN2CCC(=O)O (stereo not shown) [Example 29] | 12.1 | 0.24 |  |  |
| CCCCCOc1ccc2c(c1)C(CCn1ccnc1)CN2CCC(=O)O (stereo not shown) [Example 21] | 5.5 | 1.84 |  | 6.7 |
| O=C(O)CCCC/C=C(\c1ccccc1)c1cccnc1 [CV-4151, reference compound] |  |  |  | 11.0 |
| CCCCCCOc1ccc2c(c1)C(CCn1ccnc1)CN2CCC(=O)OCC (stereo not shown) [Example 8, Ethyl 5-hexyloxy-3-[2-(1 H-imidazol-1-yl)ethyl]-1-indolinepropionate] | 20.8 | 2.6 |  |  |
| CCOC(=O)CCN1CC(CCn2ccnc2)c2cc(OC)ccc21 (stereo not shown) [Example 10] | 54.5 | 18.7 |  |  |
| CCCc1ccc2c(c1)C(CCn1ccnc1)CN2CCC(=O)OCC (stereo not shown) [Example 12] | 19.7 | 4.8 |  |  |
| CCCCCCOc1ccc2c(c1)C(CCn1ccnc1)CN2CCC(=O)O (stereo not shown) [Example 9, 5-Hexyloxy-3-[2-(1H-imidazol-1-yl)ethyl]-1-indolinepropionic acid] | 28.3 |  |  |  |
| CCOC(=O)CCN1CC(CCn2ccnc2)c2cc(C(C)C)ccc21 (stereo not shown) [Example 14] | 14.5 | 6 |  |  |
| CC(C)c1ccc2c(c1)C(CCn1ccnc1)CN2CCC(=O)O (stereo not shown) [Example 15] | 1.6 | 24.8 |  |  |
